Source: US20090123373A1, “AMYLOID-IMAGING AGENTS” (priority 2007, published 2009)
pKi: −log10 of the molar value.

How the values were obtained:
[1] = target: β-amyloid (AD brain homogenates) (Homo sapiens, UniProt P05067); assay: Competitive binding assay with [3H]PIB in AD brain homogenates
Protocol: Binding was assayed in 12×75 mm borosilicate glass tubes. […] The resulting mixture was incubated at 37° C. for 1 h, and the bound and free radioligands were separated by rapid vacuum filtration through Whatman GF/B glass filter paper using a Brandel M-24R cell harvest and rapidly washed three times at room temperature with PBS. The filters containing the bound radioactivity were transferred to special vials containing 3 ml of universal scintillation fluid. Vials were counted using Beckman LS6500 multi-purpose scintillation counter. Specific binding was estimated as the difference between total and nonspecific binding. Under the assay conditions, the specifically bound fraction was less than 15% of the total radioactivity. The results were subjected to nonlinear regression analysis using software GraphPad Prism by which Kd and Ki values were calculated.
The postmortem brain tissues were obtained from well-defined AD patients. The gray matter was then carefully separated from white matter at autopsy and kept in −70° C. The fresh frozen gray matter was then homogenized by milling it thoroughly in a mortar in the presence of liquid nitrogen. The homogenates were then prepared in phosphate-buffered saline (PBS, pH 7.4) at a concentration of approximately 400 mg tissue/ml, aliquoted into 1-ml portions, and stored
According to the in vitro binding assays, functional groups have moderate effects on the binding affinity. […] In addition, methylation of the amino group increased the binding affinity.

[2] = Brain uptake in normal mice after iv injection; format: in vivo, mice (Swiss-Webster); settings: for Brain uptake in mice, 2 min. / Brain uptake in mice, 30 min. / Brain uptake in mice, 60 min.: n = 3, iv tail vein, 0.185 MBq; for Brain uptake in mice, 2 min.: 2 min postinjection; for Brain uptake in mice, 30 min.: 30 min postinjection; for Brain uptake in mice, 60 min.: 60 min postinjection
Protocol: The radiolabeled ligand [^125I] 18 eluted from C-18 Sep-Pak™ plus cartridge was dissolved in a mixture consisting of saline (2 ml, 9 mg/ml), ethylene glycol (2 ml), ethanol (0.7 ml), and HCl (0.3 ml, […]). Under anesthesia, 0.1 ml of the above solution containing 0.185 MBq of radioactive tracer was administered to the mice through a tail vein injection (Swiss-Webster, n=3, 2 months old). The mice were then sacrificed by a heart puncture at 2, 30, and 60 min postinjection. The brain was rapidly removed, weighed, and counted. The uptake of brain was expressed as percentage of injection dose per gram.
For potential in vivo imaging studies, we radiolabeled compound […] with ^125I for brain uptake studies. Following a single iv injection of [^125I] 18 ([…], 0.185 MBq), the brain permeability was evaluated in normal mice. The brain radioactivity concentration of [^125I] 18 was determined at 2, 30, and 60 min postinjection. […] The initial brain uptake was 3.71±0.63% ID/g at 2 min postinjection, a level that is considered for potential clinical imaging studies. The brain radioactivity concentration decreased sharply to 0.78±0.14% ID/g at 30 min and 0.43±0.12% ID/g at 60 min, with a 2-to-30 min ratio of 5. […] 18 was just as low as it rapidly clears from the normal mouse brain in the absence of amyloid deposits.

[3] = Storage stability of the radioligand; format: physicochemical
Protocol: 20-30% after HPLC purification. [^125I] 18 was obtained with a radiochemical purity over 98% and a specific activity near the theoretical limit (80 TBq/mmol) based on the no-carrier added sodium [^125I] iodide. The radiochemical identity of [^125I] 18 was verified by co-elution with the non-radioactive cold standard 18 on HPLC profiles. [^125I] 18 was stable enough to be kept for up to 8 h at room temperature and for up to 2 months in the refrigerator.

[4] = Partition coefficient determination (n-octanol/PBS); format: physicochemical; settings: n-octanol / PBS 0.1 M pH 7.4, room temperature, triplicate
Protocol: Partition coefficients were measured by mixing [^125I] 18 (10 μl, RCP>98%, approximately 50,0000 cpm) with sodium phosphate buffer (PBS, 3 g, 0.1 M, pH 7.4) and
n-octanol (3 g, 3.65 ml) in test tubes. The tubes were vortexed for 3 min (1 min 3×) at room temperature followed by centrifugation at 3500 rpm for 5 min. Then 1 ml of buffer and 1 ml of n-octanol were taken out, weighed, and counted. The partition coefficient was determined by calculating the ratio of cpm/g of n-octanol to that of PBS and expressed as logP oct=log [cpm/g (n-octanol)/cpm/g(PBS)]. Another 2 ml from the rest of n-octanol layer was taken out and repartitioned in a tube previously containing 3 g PBS and 1.65 ml of n-octanol until consistent partitions of the coefficient values were obtained. All assays were performed in triplicate.
Based on the conventional octanol-water partition measurement, the lipophilicity of [^125I] 18 was determined in terms of partition coefficients (logP oct). The logP oct of [^125I] 18 was found at 2.70 and the logP oct values of other dibenzothiazole derivatives were then estimated based on coefficients determined by Hansch and Leo (A substituent Constants for Correlation Analysis in Chemistry and Biology (1979) 1st ed.).

β-amyloid (AD brain homogenates), sequence (P05067 672-711 limits assumed): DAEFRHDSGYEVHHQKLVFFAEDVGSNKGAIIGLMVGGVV

SMILES: Nc1ccc(-c2nc3ccc(-c4nc5ccccc5s4)cc3s2)cc1 [Compound 10]
- pKi [1]: 7.44 to 8.17

SMILES: Nc1ccc(-c2nc3ccc(-c4nc5ccc(Cl)cc5s4)cc3s2)cc1 [Compound 11]
- pKi [1]: 7.44 to 8.17

SMILES: COc1ccc2nc(-c3ccc4nc(-c5ccc(N)cc5)sc4c3)sc2c1 [Compound 13]
- pKi [1]: 7.44 to 8.17

SMILES: Nc1ccc(-c2nc3ccc(-c4nc5ccccc5s4)cc3s2)cc1[125I] [[^125I]18, 4-[2,6′]dibenzothiazolyl-2′-yl-2-^125I-phenylamine]
- 2-to-30 min ratio of brain radioactivity concentration ([2]; iv): 5
- Brain uptake in mice, 2 min. [2]: 3.71 ± 0.63 % ID/g
- Brain uptake in mice, 2 min. ([2]; listed as [^125I] 18): 3.71±0.63 % ID/g
- Brain uptake in mice, 30 min. [2]: 0.78 ± 0.14 % ID/g
- Brain uptake in mice, 30 min. ([2]; listed as [^125I] 18): 0.78±0.14 % ID/g
- Brain uptake in mice, 60 min. [2]: 0.43 ± 0.12 % ID/g
- Brain uptake in mice, 60 min. ([2]; listed as [^125I] 18): 0.43±0.12 % ID/g
- Stability, time it can be kept ([3]; in the refrigerator): up to 2 months
- Stability, time it can be kept ([3]; room temperature): up to 8 h
- logP [4]: 2.7

SMILES: Nc1ccc(-c2nc3ccc(-c4nc5ccccc5s4)cc3s2)cc1I [Compound 18, 4-[2,6′]dibenzothiazolyl-2′-yl-2-iodo-phenylamine]
- pKi [1]: 7.44 to 8.17

SMILES: Nc1ccc(-c2nc3ccc(-c4nc5ccc(F)cc5s4)cc3s2)cc1 [Compound 12]
- pKi [1]: 7.44 to 8.17

SMILES: CNc1ccc(-c2nc3ccc(-c4nc5ccc(Cl)cc5s4)cc3s2)cc1 [Compound 15]
- pKi [1]: 7.44 to 8.17

SMILES: CNc1ccc(-c2nc3ccc(-c4nc5ccc(F)cc5s4)cc3s2)cc1 [Compound 16, [4-(6-fluoro-[2,60]dibenzothiazolyl-20-yl)-phenyl]-methylamine]
- pKi [1]: 7.44 to 8.17

SMILES: CN(C)c1ccc(-c2nc3ccc(-c4nc5ccc(F)cc5s4)cc3s2)cc1 [Compound 17, [4-(6-fluoro-[2,60]dibenzothiazolyl-20-yl)-phenyl]-dimethylamine]
- pKi [1]: 7.44 to 8.17

SMILES: CNc1ccc(-c2nc3ccc(-c4nc5ccccc5s4)cc3s2)cc1 [Compound 14]
- pKi [1]: 7.44 to 8.17
